Laboratory results: patent US20240383870A1, “HETEROCYCLIC ALDEHYDE TRAPPING COMPOUNDS AND USES THEREOF” (Aldeyra Therapeutics, Inc., priority 2021, published 2024)

Tests used:
Assay type in all cases: in vivo
Conditions in all cases: 200 mpk PO; LPS-challenged mice, plasma at 6.5 h; unpaired t-test vs vehicle
[1] = tested on: eotaxin; assay: Acute LPS-induced sepsis in C57BL/6 mice: eotaxin cytokine detection assay
[2] = tested on: IFNγ; assay: Acute LPS-induced sepsis in C57BL/6 mice: IFNγ cytokine detection assay
[3] = tested on: IL-1α; assay: Acute LPS-induced sepsis in C57BL/6 mice: IL-1α cytokine detection assay
Description: FIG. 5 is a graph showing the results of an IL-1α cytokine detection assay in samples collected from mouse subjects after administration of compounds of the present disclosure.
(§1) The primary objective of this study was to collect plasma samples of lipopolysaccharide (LPS) challenged C57BL/6 mice after dose of test compounds to provide a cytokine profile as impacted by prophylactic treatments. This study models acute sepsis, which is a systemic inflammatory syndrome initiated by Gram-negative and Gram-positive bacteria and fungi which infect the lungs, abdomen, bloodstream, and renal or genitourinary tracts. Sepsis patients ultimately die of multiorgan failure which is caused by extensive tissue hypo-oxygenation due to ongoing microvascular leakage, disseminated intravascular coagulation, compromised energy production, and metabolic alterations. Sepsis is characterized by an early systemic inflammatory response phase featuring symptoms, such as tachycardia, fever, hyperventilation, and activation of the complement and coagulation cascades. However, it is now appreciated that a compensatory anti-inflammatory response phase follows, characterized by neuroendocrine-mediated immunosuppression. […]
(§2) A 32-plex cytokine panel was obtained from Eve Technologies. Each cytokine was assessed based against a 7 point curve range in duplicate. […]

[4] = tested on: IL-3; assay: Acute LPS-induced sepsis in C57BL/6 mice: IL-3 cytokine detection assay
[5] = tested on: IL-6; assay: Acute LPS-induced sepsis in C57BL/6 mice: IL-6 cytokine detection assay
Description: FIG. 11 is a graph showing the results of an IL-6 cytokine detection assay in samples collected from mouse subjects after administration of compounds of the present disclosure.
(§3) The primary objective of this study was to collect plasma samples of lipopolysaccharide (LPS) challenged C57BL/6 mice after dose of test compounds to provide a cytokine profile as impacted by prophylactic treatments. This study models acute sepsis, which is a systemic inflammatory syndrome initiated by Gram-negative and Gram-positive bacteria and fungi which infect the lungs, abdomen, bloodstream, and renal or genitourinary tracts. Sepsis patients ultimately die of multiorgan failure which is caused by extensive tissue hypo-oxygenation due to ongoing microvascular leakage, disseminated intravascular coagulation, compromised energy production, and metabolic alterations. Sepsis is characterized by an early systemic inflammatory response phase featuring symptoms, such as tachycardia, fever, hyperventilation, and activation of the complement and coagulation cascades. However, it is now appreciated that a compensatory anti-inflammatory response phase follows, characterized by neuroendocrine-mediated immunosuppression. Since these processes are the result of interaction between cells of inflammation and organs, investigation of the treatment of this syndrome requires the use of intact animal models. The use of ten mice per group allows useful statistical modelling of the results.
(§4) For the data shown in Table 2A, 103 mice (female, 18-22 gram, C57BL/6) were purchased from ENVIGO. The mice were housed in 20 cages of 5 mice per cage with 1 cage of 3 mice as extra. The cages had filter tops and autoclaved bedding, and the animals were placed in quarantine with daily inspection. The treatment groups are detailed in Table 2A below. 10 mice were included in each group. The mice were dosed by oral gavage (PO) at 10 ml/kg as per the table below. MC=methyl cellulose.
(§5) For the data shown in Table 2B, 185 mice (female, 18-22 gram, C57BL/6) were purchased from ENVIGO. The mice were housed in 37 cages of 5 mice per cage. The cages had filter tops and autoclaved bedding, and the animals were placed in quarantine with daily inspection. The treatment groups are detailed in Table 2B below. 10 mice were included in each group. The mice were dosed by oral gavage (P0) at 10 ml/kg as per the table below. MC=methyl cellulose.
(§6) At T=0 h, the mice were dosed with one of the test compounds as described in the above table.
(§7) At T=0.5 h, the mice were injected IP with 1.5 mg/kg […] (Sigma).
(§8) At T=6.5 h, all mice were anesthetized and exsanguinated into pre-chilled EDTA-treated tubes. […]
as §2

[6] = tested on: IL-9; assay: Acute LPS-induced sepsis in C57BL/6 mice: IL-9 cytokine detection assay
Description: FIG. 13 is a graph showing the results of an IL-9 cytokine detection assay in samples collected from mouse subjects after administration of compounds of the present disclosure.
as §3
(§9) For the data shown in Table 2A, 103 mice (female, 18-22 gram, C57BL/6) were purchased from ENVIGO. The mice were housed in 20 cages of 5 mice per cage with 1 cage of 3 mice as extra. The cages had filter tops and autoclaved bedding, and the animals were placed in quarantine with daily inspection. The treatment groups are detailed in Table 2A below. 10 mice were included in each group. The mice were dosed by oral gavage (PO) at 10 ml/kg as per the table below. MC=methyl cellulose. […]
as §2

[7] = tested on: IL-10; assay: Acute LPS-induced sepsis in C57BL/6 mice: IL-10 cytokine detection assay
[8] = tested on: IL-13; assay: Acute LPS-induced sepsis in C57BL/6 mice: IL-13 cytokine detection assay
Description: FIG. 17 is a graph showing the results of an IL-13 cytokine detection assay in samples collected from mouse subjects after administration of compounds of the present disclosure.
as §3, §4, §5, §6, §7
(§10) At T=6.5 h, all mice were anesthetized and exsanguinated into pre-chilled EDTA-treated tubes. The blood was processed to plasma which was stored in labeled 0.5 polypropylene snap-cap tubes (0.5 mL Eppendorf Safe-Lock Tubes (Fisher Scientific) at −80° C.
(§11) Preparation of vehicle: 1.0 gram of methyl cellulose (Sigma) was dissolved in 200 mL of water (USP purified) to make a solution of 0.5% methyl cellulose in water. Preparation of LPS solution: 6 mg of LPS (from Escherichia Coli 055:B5, Cat #L2880, Sigma Lot #057m4013) was dissolved in 20 ml of saline to give a LPS solution of 0.3 mg/ml. All mice were injected with 5 ml/kg (1.5 mg/kg) at the scheduled time by intraperitoneal injection.
A 32-plex cytokine panel was obtained from Eve Technologies. Each cytokine was assessed based against a 7 point curve range in duplicate. The average of the two replicate analyses was used for statistics. […]

[9] = tested on: IL-15; assay: Acute LPS-induced sepsis in C57BL/6 mice: IL-15 cytokine detection assay
[10] = tested on: IL-17; assay: Acute LPS-induced sepsis in C57BL/6 mice: IL-17 cytokine detection assay
Description: FIG. 19 is a graph showing the results of an IL-17 cytokine detection assay in samples collected from mouse subjects after administration of compounds of the present disclosure.
as §3
For the data shown in Table 2A, 103 mice (female, 18-22 gram, C57BL/6) were purchased from ENVIGO. The mice were housed in 20 cages of 5 mice per cage with 1 cage of 3 mice as extra. The cages had filter tops and autoclaved bedding, and the animals were placed in quarantine with daily inspection. The treatment groups are detailed in Table 2A below. 10 mice were included in each group. […] MC=methyl cellulose.
as §5, §6, §7, §8, §2

[11] = tested on: KC; assay: Acute LPS-induced sepsis in C57BL/6 mice: KC cytokine detection assay
Description: FIG. 20 is a graph showing the results of a KC cytokine detection assay in samples collected from mouse subjects after administration of compounds of the present disclosure.
as §3, §4, §5, §6, §7, §10, §11
(§12) A 32-plex cytokine panel was obtained from Eve Technologies. Each cytokine was assessed based against a 7 point curve range in duplicate. The average of the two replicate analyses was used for statistics. Unpaired t-tests were performed using Excel™ contrasting vehicle against each treatment group. One star indicates P<0.05. Two stars indicates P<0.01. Three stars indicates P<0.001. Four stars indicates P<0.0001. Most, but not all, statistically significant results are indicated with star(s).

[12] = tested on: leukemia inhibitory factor (LIF); assay: Acute LPS-induced sepsis in C57BL/6 mice: leukemia inhibitory factor (LIF) cytokine detection assay
Description: FIG. 21 is a graph showing the results of a leukemia inhibitory factor (LIF) cytokine detection assay in samples collected from mouse subjects after administration of compounds of the present disclosure. LIF is an interleukin 6 class cytokine that affects cell growth by inhibiting differentiation.
as §3, §4, §5, §6, §7, §10, §11, §2

[13] = tested on: LIX (CXCL5); assay: Acute LPS-induced sepsis in C57BL/6 mice: LIX (CXCL5) cytokine detection assay
Description: FIG. 22 is a graph showing the results of a LIX (CXCL5) cytokine detection assay in samples collected from mouse subjects after administration of compounds of the present disclosure.
as §1, §2

[14] = tested on: MCP-1(CCL2); assay: Acute LPS-induced sepsis in C57BL/6 mice: MCP-1(CCL2) cytokine detection assay
[15] = tested on: M-CSF (CSF1); assay: Acute LPS-induced sepsis in C57BL/6 mice: M-CSF (CSF1) cytokine detection assay
Description: FIG. 24 is a graph showing the results of an M-CSF (CSF1) cytokine detection assay in samples collected from mouse subjects after administration of compounds of the present disclosure. M-CSF causes hematopoietic stem cells to differentiate into macrophages.
as §3, §4, §5, §6, §7, §10, §11, §12

[16] = tested on: TNFα; assay: Acute LPS-induced sepsis in C57BL/6 mice: TNFα cytokine detection assay
Description: FIG. 29 is a graph showing the results of a TNFα cytokine detection assay in samples collected from mouse subjects after administration of compounds of the present disclosure.
as §3, §9, §2

[17] = tested on: VEGF; assay: Acute LPS-induced sepsis in C57BL/6 mice: VEGF cytokine detection assay
Description: FIG. 30 is a graph showing the results of a VEGF cytokine detection assay in samples collected from mouse subjects after administration of compounds of the present disclosure.
as §1, §2

Which “Eotaxin: significant cytokine change vs. vehicle” value [1] does the source give for `CC(O)(c1sc2cc(C(F)(F)F)ccc2c1N)C(F)(F)F` (centres unmarked) [Compound I-3, 2-(3-amino-6-(trifluoromethyl)benzo[b]thiophen-2-yl)-1,1,1-trifluoropropan-2-ol] here?
The value was “** (Two stars indicates P<0.01)”.

And the “IFNy: significant cytokine change vs. vehicle” value [2]?
Its value is “**** (Four stars indicates P<0.0001)”.

And the “IL-1a: significant cytokine change vs. vehicle” value [3]?
The value was “*** (Three stars indicates P<0.001)”.

What about the “IL-3: significant cytokine change vs. vehicle” value [4] of the same molecule?
Its value is “**** (Four stars indicates P<0.0001)”.

What about the “IL-6: significant cytokine change vs. vehicle” value [5] of the same molecule?
Its value is “** (Two stars indicates P<0.01)”.

And the “IL-9: significant cytokine change vs. vehicle” value [6]?
The value was “*** (Three stars indicates P<0.001)”.

What about the “IL-10: significant cytokine change vs. vehicle” value [7] of the same molecule?
Its value is “* (One star indicates P<0.05)”.

And the “IL-13: significant cytokine change vs. vehicle” value [8]?
The value was “*** (Three stars indicates P<0.001)”.

What about the “IL-15: significant cytokine change vs. vehicle” value [9] of the same molecule?
Its value is “** (Two stars indicates P<0.01)”.

And the “IL-17: significant cytokine change vs. vehicle” value [10]?
Its value is “*** (Three stars indicates P<0.001)”.

What about the “KC: significant cytokine change vs. vehicle” value [11] of the same molecule?
Its value is “** (Two stars indicates P<0.01)”.

What about the “LIF: significant cytokine change vs. vehicle” value [12] of the same molecule?
The value was “* (One star indicates P<0.05)”.

And the “LIX: significant cytokine change vs. vehicle” value [13]?
The value was “* (One star indicates P<0.05)”.

And the “MCP-1: significant cytokine change vs. vehicle” value [14]?
Its value is “**** (Four stars indicates P<0.0001)”.

What about the “M-CSF: significant cytokine change vs. vehicle” value [15] of the same molecule?
The value was “** (Two stars indicates P<0.01)”.

What about the “TNFa: significant cytokine change vs. vehicle” value [16] of the same molecule?
Its value is “** (Two stars indicates P<0.01)”.

And the “VEGF: significant cytokine change vs. vehicle” value [17]?
Its value is “* (One star indicates P<0.05)”.
